These results are taken from PMC5218480 (PLoS ONE, 2017).

Molecules are shown by their SMILES.

The test relates to MV-4-11 cells. As to the kind of experiment: Gene expression microarray analysis (Affymetrix PrimeView) and GSEA. In kind it is cell-based, human. Set-up: RFU PODN (11730768_x_at) / Fold change /veh PODN (11730768_x_at) / RFU LINC00158 (11744669_a_at) / Fold change /veh LINC00158 (11744669_a_at) / RFU DUSP10 (11751237_a_at) / Fold change /veh DUSP10 (11751237_a_at) / RFU ID3 (11757404_x_at) / Fold change /veh ID3 (11757404_x_at) / RFU PLEKHG5 (11737974_s_at) / Fold change /veh PLEKHG5 (11737974_s_at) / RFU LRRC4B (11730491_at) / Fold change /veh LRRC4B (11730491_at) / RFU GIMAP4 (11747438_a_at) / Fold change /veh GIMAP4 (11747438_a_at) / RFU KRT8 (11758183_x_at) / Fold change /veh KRT8 (11758183_x_at) / RFU CNN1 (11734310_a_at) / Fold change /veh CNN1 (11734310_a_at) / RFU VPS37D (11726825_at) / Fold change /veh VPS37D (11726825_at) / RFU C10orf10 (11716522_x_at) / Fold change /veh C10orf10 (11716522_x_at) / RFU KIR2DL2 /// KIR2DL4 /// KIR2DL5A /// KIR2DL5B /// KIR2DS1 /// KIR2DS2 /// KIR2DS3 /// KIR2DS4 /// KIR3DL3 /// KIR3DL3 /// KIR3DS1 (11738374_at) / Fold change /veh KIR2DL2 /// KIR2DL4 /// KIR2DL5A /// KIR2DL5B /// KIR2DS1 /// KIR2DS2 /// KIR2DS3 /// KIR2DS4 /// KIR3DL3 /// KIR3DL3 /// KIR3DS1 (11738374_at) / RFU C1QL1 (11718748_at) / Fold change /veh C1QL1 (11718748_at) / RFU TMPRSS4 (11747572_a_at) / Fold change /veh TMPRSS4 (11747572_a_at) / RFU HAMP (11756126_x_at) / Fold change /veh HAMP (11756126_x_at) / RFU RNFT2 (11725882_a_at) / Fold change /veh RNFT2 (11725882_a_at) / RFU NR4A2 (11747474_a_at) / Fold change /veh NR4A2 (11747474_a_at) / RFU ABCC12 (11746883_a_at) / Fold change /veh ABCC12 (11746883_a_at) / RFU TMEM136 (11760407_x_at) / Fold change /veh TMEM136 (11760407_x_at) / RFU CLDN22 /// WWC2 (11732394_at) / Fold change /veh CLDN22 /// WWC2 (11732394_at) / RFU HLA-DPB1 (11760878_x_at) / Fold change /veh HLA-DPB1 (11760878_x_at) / RFU SPINT1 (11716480_a_at) / Fold change /veh SPINT1 (11716480_a_at) / RFU GAP43 (11754022_s_at) / Fold change /veh GAP43 (11754022_s_at) / RFU A4GNT (11735810_at) / Fold change /veh A4GNT (11735810_at) / RFU PRB3 (11715151_x_at) / Fold change /veh PRB3 (11715151_x_at) / RFU TUBB4B (11761932_at) / Fold change /veh TUBB4B (11761932_at) / RFU CAPN14 (11732068_a_at) / Fold change /veh CAPN14 (11732068_a_at) / RFU TMCC2 (11721928_a_at) / Fold change /veh TMCC2 (11721928_a_at) / RFU IRGQ (11745062_a_at) / Fold change /veh IRGQ (11745062_a_at) / RFU FAM174B (11720279_a_at) / Fold change /veh FAM174B (11720279_a_at) / RFU TMPRSS4 (11748680_a_at) / Fold change /veh TMPRSS4 (11748680_a_at) / RFU FAM212B (11763350_a_at) / Fold change /veh FAM212B (11763350_a_at) / RFU PLEKHG5 (11743358_a_at) / Fold change /veh PLEKHG5 (11743358_a_at) / RFU ZSCAN30 (11745921_a_at) / Fold change /veh ZSCAN30 (11745921_a_at) / RFU CMKLR1 (11741424_a_at) / Fold change /veh CMKLR1 (11741424_a_at) / RFU LOC101060620 /// MAPK8IP1 (11723275_at) / Fold change /veh LOC101060620 /// MAPK8IP1 (11723275_at) / RFU SPTSSB (11747773_x_at) / Fold change /veh SPTSSB (11747773_x_at) / RFU PRSS12 (11739890_at) / Fold change /veh PRSS12 (11739890_at) / RFU BIN1 (11741810_x_at) / Fold change /veh BIN1 (11741810_x_at) / RFU WNT11 (11732464_a_at) / Fold change /veh WNT11 (11732464_a_at) / RFU C10orf10 (11716521_a_at) / Fold change /veh C10orf10 (11716521_a_at) / RFU C5orf56 (11738089_at) / Fold change /veh C5orf56 (11738089_at) / RFU CYB561 (11721691_x_at) / Fold change /veh CYB561 (11721691_x_at) / RFU ANKRD19P (11752326_a_at) / Fold change /veh ANKRD19P (11752326_a_at) / RFU OR2T12 /// OR2T33 /// OR2T8 (11738714_s_at) / Fold change /veh OR2T12 /// OR2T33 /// OR2T8 (11738714_s_at) / RFU VCAN (11748164_a_at) / Fold change /veh VCAN (11748164_a_at) / RFU JSRP1 (11732532_at) / Fold change /veh JSRP1 (11732532_at) / RFU KRTAP10-11 (11738290_x_at) / Fold change /veh KRTAP10-11 (11738290_x_at) / RFU MYO3A (11730013_a_at) / Fold change /veh MYO3A (11730013_a_at) / RFU EBF3 (11725865_a_at) / Fold change /veh EBF3 (11725865_a_at) / RFU CAMK2N1 (11719241_x_at) / Fold change /veh CAMK2N1 (11719241_x_at) / RFU C5orf56 (11738088_a_at) / Fold change /veh C5orf56 (11738088_a_at) / RFU OLFML3 (11715873_a_at) / Fold change /veh OLFML3 (11715873_a_at) / RFU LOC100653217 /// NTM (11731650_a_at) / Fold change /veh LOC100653217 /// NTM (11731650_a_at) / RFU MAPK11 (11762145_a_at) / Fold change /veh MAPK11 (11762145_a_at) / RFU FIZ1 (11724087_x_at) / Fold change /veh FIZ1 (11724087_x_at) / RFU OASL (11726364_x_at) / Fold change /veh OASL (11726364_x_at) / RFU SOX15 (11748057_x_at) / Fold change /veh SOX15 (11748057_x_at) / RFU CD79A (11719716_a_at) / Fold change /veh CD79A (11719716_a_at) / RFU HIST1H1D (11736915_at) / Fold change /veh HIST1H1D (11736915_at) / RFU CASKIN2 (11723855_a_at) / Fold change /veh CASKIN2 (11723855_a_at) / RFU LOC730098 (11760151_x_at) / Fold change /veh LOC730098 (11760151_x_at) / RFU OR4N2 (11742367_at) / Fold change /veh OR4N2 (11742367_at) / RFU PRRT2 (11749266_a_at) / Fold change /veh PRRT2 (11749266_a_at) / RFU SNX32 (11753110_a_at) / Fold change /veh SNX32 (11753110_a_at) / RFU CDHR5 (11726645_a_at) / Fold change /veh CDHR5 (11726645_a_at) / RFU RCAN1 (11760418_a_at) / Fold change /veh RCAN1 (11760418_a_at) / RFU FAM167A (11723789_a_at) / Fold change /veh FAM167A (11723789_a_at) / RFU FAM26E (11764081_at) / Fold change /veh FAM26E (11764081_at) / RFU ISYNA1 (11749810_s_at) / Fold change /veh ISYNA1 (11749810_s_at) / RFU ACY1 (11761880_at) / Fold change /veh ACY1 (11761880_at) / RFU 11764098_at / Fold change /veh 11764098_at / RFU SAMD14 (11745864_x_at) / Fold change /veh SAMD14 (11745864_x_at) / RFU NPB (11741838_a_at) / Fold change /veh NPB (11741838_a_at) / RFU TMPRSS6 (11731388_a_at) / Fold change /veh TMPRSS6 (11731388_a_at) / RFU KRTAP10-2 (11738614_at) / Fold change /veh KRTAP10-2 (11738614_at) / RFU ARHGAP8 /// PRR5-ARHGAP8 (11727945_x_at) / Fold change /veh ARHGAP8 /// PRR5-ARHGAP8 (11727945_x_at) / RFU KRTAP5-7 /// NADSYN1 (11734609_at) / Fold change /veh KRTAP5-7 /// NADSYN1 (11734609_at) / RFU RASL12 (11751679_a_at) / Fold change /veh RASL12 (11751679_a_at) / RFU CDKN2B (11736163_a_at) / Fold change /veh CDKN2B (11736163_a_at) / RFU PRF1 (11729649_at) / Fold change /veh PRF1 (11729649_at) / RFU, ZNF638 /// ZNF638-IT1 / Fold change vs veh, ZNF638 /// ZNF638-IT1 / RFU, PANK3 / Fold change vs veh, PANK3 / RFU, SH3YL1 / Fold change vs veh, SH3YL1 / RFU, ZEB2 / Fold change vs veh, ZEB2 / RFU, NRIP1 / Fold change vs veh, NRIP1 / RFU, PTTG1IP / Fold change vs veh, PTTG1IP / RFU, CAPN2 / Fold change vs veh, CAPN2 / RFU, MED14 / Fold change vs veh, MED14 / RFU, SNORA58 / Fold change vs veh, SNORA58 / RFU, C1orf63 / Fold change vs veh, C1orf63 / RFU, LRRFIP1 / Fold change vs veh, LRRFIP1 / RFU, NDUFAF7 / Fold change vs veh, NDUFAF7 / RFU, SLC12A2 / Fold change vs veh, SLC12A2 / RFU, IBTK / Fold change vs veh, IBTK / RFU, ESF1 / Fold change vs veh, ESF1 / Fold change vs veh, TMEM50B / RFU, TAOK1 / Fold change vs veh, TAOK1 / RFU, ACBD3 / Fold change vs veh, ACBD3 / RFU, TMA16 / Fold change vs veh, TMA16 / RFU, RWDD3 / Fold change vs veh, RWDD3 / RFU, BCAT1 / Fold change vs veh, BCAT1 / RFU, EDEM3 / Fold change vs veh, EDEM3 / RFU, TMEM33 / Fold change vs veh, TMEM33 / RFU, WDR75 / Fold change vs veh, WDR75 / RFU, AHCTF1 / Fold change vs veh, AHCTF1 / RFU, TFRC / Fold change vs veh, TFRC / RFU, ZDHHC17 / Fold change vs veh, ZDHHC17 / RFU, NOM1 / Fold change vs veh, NOM1 / RFU, ARL8B / Fold change vs veh, ARL8B / RFU, ZBTB11 / Fold change vs veh, ZBTB11 / RFU, TAMM41 / Fold change vs veh, TAMM41 / RFU, KIAA1704 /// LOC100996395 / Fold change vs veh, KIAA1704 /// LOC100996395 / RFU, ING1 / Fold change vs veh, ING1 / RFU, TRMT61B / Fold change vs veh, TRMT61B / RFU, FUBP3 / Fold change vs veh, FUBP3 / RFU, TP53 / Fold change vs veh, TP53 / RFU, TNKS2 / Fold change vs veh, TNKS2 / RFU, ZFP14 / Fold change vs veh, ZFP14 / RFU, ACTR2 / Fold change vs veh, ACTR2 / RFU, PPP3R1 / Fold change vs veh, PPP3R1 / RFU, PIK3R1 / Fold change vs veh, PIK3R1 / RFU, HNRNPA1 / Fold change vs veh, HNRNPA1 / RFU, RNF170 / Fold change vs veh, RNF170 / RFU, ZNF28 / Fold change vs veh, ZNF28 / RFU, RNGTT / Fold change vs veh, RNGTT / RFU, OGT / Fold change vs veh, OGT / RFU, BRD1 / Fold change vs veh, BRD1 / RFU, MARS / Fold change vs veh, MARS / RFU, ZNF655 / Fold change vs veh, ZNF655 / RFU, FAHD1 / Fold change vs veh, FAHD1 / RFU, BDP1 / Fold change vs veh, BDP1 / RFU, LRRCC1 / Fold change vs veh, LRRCC1 / RFU, ARID1A / Fold change vs veh, ARID1A / RFU, ZNF146 / Fold change vs veh, ZNF146 / RFU, ZNF330 / Fold change vs veh, ZNF330 / RFU, GPN3 / Fold change vs veh, GPN3 / RFU, C9orf123 / Fold change vs veh, C9orf123 / RFU, N4BP2L2 / Fold change vs veh, N4BP2L2 / RFU, ARFIP1 / Fold change vs veh, ARFIP1 / RFU, FAM179B / Fold change vs veh, FAM179B / RFU, BCL10 / Fold change vs veh, BCL10 / RFU, UHRF1BP1L / Fold change vs veh, UHRF1BP1L / RFU, BET1 / Fold change vs veh, BET1 / RFU, CNOT2 / Fold change vs veh, CNOT2 / RFU, ZNF268 / Fold change vs veh, ZNF268 / Fold change vs veh, ZNF507 / RFU, DGCR2 / Fold change vs veh, DGCR2 / RFU, WDSUB1 / Fold change vs veh, WDSUB1 / Fold change vs veh, HSP90B1 /// MIR3652 / RFU, ADSS / Fold change vs veh, ADSS / RFU, GK / Fold change vs veh, GK / RFU, ZNF148 / Fold change vs veh, ZNF148 / RFU, TAF9 / Fold change vs veh, TAF9 / RFU, SLC1A5 / Fold change vs veh, SLC1A5 / RFU, SLMO2 / Fold change vs veh, SLMO2 / RFU, ABCC4 / Fold change vs veh, ABCC4 / RFU, LOC101060439 /// RAP1B / Fold change vs veh, LOC101060439 /// RAP1B / RFU, RFX7 / Fold change vs veh, RFX7 / RFU, GTPBP10 / Fold change vs veh, GTPBP10 / RFU, CNEP1R1 / Fold change vs veh, CNEP1R1 / RFU, BIVM-ERCC5 /// ERCC5 / Fold change vs veh, BIVM-ERCC5 /// ERCC5 / RFU, ILF3 / Fold change vs veh, ILF3 / RFU 11762660_at / Fold change /veh 11762660_at / RFU VCAN (11757783_s_at) / Fold change /veh VCAN (11757783_s_at) / RFU DDX43 (11728927_at) / Fold change /veh DDX43 (11728927_at) / RFU KRT8 (11758188_x_at) / Fold change /veh KRT8 (11758188_x_at) / RFU NKD1 (11759106_at) / Fold change /veh NKD1 (11759106_at) / RFU SRD5A1 (11742802_a_at) / Fold change /veh SRD5A1 (11742802_a_at) / RFU TPSAB1 /// TPSB2 (11721975_s_at) / Fold change /veh TPSAB1 /// TPSB2 (11721975_s_at) / RFU GSTM3 (11746129_a_at) / Fold change /veh GSTM3 (11746129_a_at) / RFU IL23R (11737362_x_at) / Fold change /veh IL23R (11737362_x_at) / RFU TMEM51 (11727254_a_at) / Fold change /veh TMEM51 (11727254_a_at) / RFU PIWIL2 (11732686_x_at) / Fold change /veh PIWIL2 (11732686_x_at) / RFU ORM1 (11744905_x_at) / Fold change /veh ORM1 (11744905_x_at) / RFU CCDC152 (11743942_at) / Fold change /veh CCDC152 (11743942_at) / RFU ECM1 (11717891_a_at) / Fold change /veh ECM1 (11717891_a_at) / RFU IL23R (11748794_a_at) / Fold change /veh IL23R (11748794_a_at) / RFU TNFAIP8L3 (11732012_x_at) / Fold change /veh TNFAIP8L3 (11732012_x_at) / RFU MBOAT4 (11741988_at) / Fold change /veh MBOAT4 (11741988_at) / RFU 11764193_at / Fold change /veh 11764193_at / RFU TMEM53 (11763286_at) / Fold change /veh TMEM53 (11763286_at) / RFU MAGEB2 (11727129_at) / Fold change /veh MAGEB2 (11727129_at) / RFU TMEM200A (11744735_a_at) / Fold change /veh TMEM200A (11744735_a_at) / RFU CCDC152 (11751479_a_at) / Fold change /veh CCDC152 (11751479_a_at) / RFU FAM211A (11726209_a_at) / Fold change /veh FAM211A (11726209_a_at) / RFU RGS16 (11746705_a_at) / Fold change /veh RGS16 (11746705_a_at) / RFU VCAN (11755009_s_at) / Fold change /veh VCAN (11755009_s_at) / RFU RHOB (11743442_s_at) / Fold change /veh RHOB (11743442_s_at) / RFU RGS16 (11720943_a_at) / Fold change /veh RGS16 (11720943_a_at) / RFU RGS16 (11720944_at) / Fold change /veh RGS16 (11720944_at) / RFU, VPS4B / Fold change vs veh, VPS4B / RFU, CREB1 / Fold change vs veh, CREB1 / RFU, DNAJC13 / Fold change vs veh, DNAJC13 / RFU, GNAQ / Fold change vs veh, GNAQ / RFU, CDK5R1 / Fold change vs veh, CDK5R1 / RFU, ZRANB3 / Fold change vs veh, ZRANB3 / RFU, CUL4A / Fold change vs veh, CUL4A / RFU, CCNY / Fold change vs veh, CCNY / RFU, UFL1 / Fold change vs veh, UFL1 / RFU, COG3 / Fold change vs veh, COG3 / RFU, DIAPH2 / Fold change vs veh, DIAPH2 / RFU, SKA2 / Fold change vs veh, SKA2 / RFU, AFF3 / Fold change vs veh, AFF3 / RFU, LMF1 / Fold change vs veh, LMF1 / RFU, IPO11 / Fold change vs veh, IPO11 / RFU, DFFB / Fold change vs veh, DFFB / RFU, FOXP1 / Fold change vs veh, FOXP1 / RFU, CARD8 / Fold change vs veh, CARD8 / RFU, STRN3 / Fold change vs veh, STRN3 / RFU, ADK / Fold change vs veh, ADK / RFU, RASSF2 / Fold change vs veh, RASSF2 / RFU, WIPF1 / Fold change vs veh, WIPF1 / RFU, LARP1B / Fold change vs veh, LARP1B / RFU, RASA1 / Fold change vs veh, RASA1 / RFU, RB1 / Fold change vs veh, RB1 / RFU, PPFIA1 / Fold change vs veh, PPFIA1 / RFU, MAT2A / Fold change vs veh, MAT2A / RFU, CCT5 / Fold change vs veh, CCT5 / RFU, WDR92 / Fold change vs veh, WDR92 / RFU, CUX1 / Fold change vs veh, CUX1 / RFU, TTC7A / Fold change vs veh, TTC7A / RFU, TMEM135 / Fold change vs veh, TMEM135 / RFU, DEPTOR / Fold change vs veh, DEPTOR / RFU, CPM / Fold change vs veh, CPM / RFU, DNAJB6 / Fold change vs veh, DNAJB6 / RFU, CACNA2D3 / Fold change vs veh, CACNA2D3 / RFU, DTX4 / Fold change vs veh, DTX4 / RFU, TFCP2 / Fold change vs veh, TFCP2 / RFU, GMCL1 /// GMCL1P1 / Fold change vs veh, GMCL1 /// GMCL1P1 / RFU, AEBP2 / Fold change vs veh, AEBP2 / RFU, SNHG1 /// SNORD22 /// SNORD25 /// SNORD26 /// SNORD27 /// SNORD28 /// SNORD29 /// SNORD31 / Fold change vs veh, SNHG1 /// SNORD22 /// SNORD25 /// SNORD26 /// SNORD27 /// SNORD28 /// SNORD29 /// SNORD31 / Fold change (Aza/veh), C12orf56 (ProbeSet 11735607_a_at) / Fold change (ACY-1035/veh), C12orf56 (ProbeSet 11735607_a_at) / Fold change (Aza/veh), FGFR1OP (ProbeSet 11751329_s_at) / Fold change (ACY-1035/veh), FGFR1OP (ProbeSet 11751329_s_at) / Fold change (Aza/veh), VPS36 (ProbeSet 11739960_a_at) / Fold change (ACY-1035/veh), VPS36 (ProbeSet 11739960_a_at) / RFU SYPL1 (11715823_x_at) / Fold change /veh SYPL1 (11715823_x_at) / RFU IGFBP7 (11715501_s_at) / Fold change /veh IGFBP7 (11715501_s_at) / RFU REEP3 (11722064_at) / Fold change /veh REEP3 (11722064_at) / RFU IGLL1 (11728026_x_at) / Fold change /veh IGLL1 (11728026_x_at): dose or concentration left out as unconfirmed. As to conditions: ProbeSet 11724763_s_at; LIST D.

Take `Nc1ccc(-c2cccs2)cc1NC(=O)c1ccc2c(c1)cc(C1CC1)n2CCN1CCOCC1` [ACY-1035]: the “RFU, DEPTOR” value came out at 104.61 RFU.
